The record followed here is patent US8686150B2 (Sanofi, priority 2011, dated 2014).

This experiment deals with T1, human full-length recombinant PKC βII (Homo sapiens, UniProt P05771).
T1 construct: Active human full-length recombinant PKC βII; purchased Invitrogen GmbH, Darmstadt, Germany
Description: Determination of PKC βII inhibition (Caliper mobility-shift kinase assay, Fluorescein-RFARKGSLRQKNV peptide substrate). Format: biochemical. Conditions: example compounds at a final concentration of 1.14 μM (±0.15 μM). An outline of the steps: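 Compounds were tested at 1.14 μM final. Enzyme was activated by PS, DAG and CaCl2 in Hepes pH 7.4 with MgCl2, with substrate 3 μM and ATP 120 μM as pre-mix concentrations. After 60 min at 32 °C and an EDTA stop, Caliper separation gave fractional turnover, which was normalised to no-compound and no-enzyme controls.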

T1 sequence (P05771 1-673 isoform P05771-2): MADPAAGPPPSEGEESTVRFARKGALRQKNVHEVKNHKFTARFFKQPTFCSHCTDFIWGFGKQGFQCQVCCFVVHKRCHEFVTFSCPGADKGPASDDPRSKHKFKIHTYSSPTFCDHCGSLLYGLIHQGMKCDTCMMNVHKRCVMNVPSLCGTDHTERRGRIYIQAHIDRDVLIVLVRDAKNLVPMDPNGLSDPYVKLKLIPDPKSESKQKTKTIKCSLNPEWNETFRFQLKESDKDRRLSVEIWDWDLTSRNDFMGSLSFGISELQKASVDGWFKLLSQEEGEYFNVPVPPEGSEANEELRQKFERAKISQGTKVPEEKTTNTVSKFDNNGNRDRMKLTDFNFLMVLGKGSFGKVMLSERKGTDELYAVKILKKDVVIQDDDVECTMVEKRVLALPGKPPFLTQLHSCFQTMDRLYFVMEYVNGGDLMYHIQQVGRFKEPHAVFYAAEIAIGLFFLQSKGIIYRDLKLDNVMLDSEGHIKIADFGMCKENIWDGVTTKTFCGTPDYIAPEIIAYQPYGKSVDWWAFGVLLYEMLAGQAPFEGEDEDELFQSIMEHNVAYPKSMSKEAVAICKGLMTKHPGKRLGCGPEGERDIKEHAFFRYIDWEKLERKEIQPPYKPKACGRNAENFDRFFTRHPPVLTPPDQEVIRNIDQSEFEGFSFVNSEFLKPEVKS

`CCc1n[nH]c2nc(-c3ccc(O)cc3)cc(C(=O)N3CC4(CCNCC4)C3)c12` [Example 169, (2,7-Diaza-spiro[3.5]non-2-yl)-[3-ethyl-6-(4-hydroxy-phenyl)-1H-pyrazolo[3,4-b]pyridin-4-yl]-methanone]: the inhibition at 1.14 µM is 84%.

Consider `CCc1n[nH]c2nc(-c3ccc(O)cc3)cc(C(=O)NC3CCCC(N)C3)c12` (centres unmarked) [Example 170, 3-Ethyl-6-(4-hydroxy-phenyl)-1H-pyrazolo[3,4-b]pyridine-4-carboxylic acid (3-amino-cyclohexyl)-amide], for which the inhibition at 1.14 µM worked out at 59%.

Regarding `CCc1n[nH]c2nc(-c3ccc(O)cc3)cc(C(=O)N3CCC4(CC3)CNC4)c12` [Example 171, (2,7-Diaza-spiro[3.5]non-7-yl)-[3-ethyl-6-(4-hydroxy-phenyl)-1H-pyrazolo[3,4-b]pyridin-4-yl]-methanone], the inhibition at 1.14 µM was determined as 77%.

For `CCc1n[nH]c2nc(-c3ccc(O)cc3)cc(C(=O)N3CCC4(CCNC4)C3)c12` (centres unmarked) [Example 172, (2,7-Diaza-spiro[4.4]non-2-yl)-[3-ethyl-6-(4-hydroxy-phenyl)-1H-pyrazolo[3,4-b]pyridin-4-yl]-methanone], the inhibition at 1.14 µM is 67%.

`CCc1n[nH]c2nc(-c3ccc(O)cc3)cc(C(=O)N3CCC4(CCCNC4)C3)c12` (centres unmarked) [Example 173, (2,7-Diaza-spiro[4.5]dec-2-yl)-[3-ethyl-6-(4-hydroxy-phenyl)-1H-pyrazolo[3,4-b]pyridin-4-yl]-methanone]: the inhibition at 1.14 µM was determined as 58%.

For the molecule `CCc1n[nH]c2nc(-c3ccc(O)cc3)cc(C(=O)N(C)C3CCN(C)CC3)c12` [Example 174, 3-Ethyl-6-(4-hydroxy-phenyl)-1H-pyrazolo[3,4-b]pyridine-4-carboxylic acid methyl-(1-methyl-piperidin-4-yl)-amide], the inhibition at 1.14 µM turned out to be 34%.

As to `CCc1n[nH]c2nc(-c3ccc(O)cc3)cc(C(=O)NC3CCCN(CC)C3)c12` (centres unmarked) [Example 175, 3-Ethyl-6-(4-hydroxy-phenyl)-1H-pyrazolo[3,4-b]pyridine-4-carboxylic acid (1-ethyl-piperidin-3-yl)-amide], the inhibition at 1.14 µM amounted to 46%.

Regarding `CCc1n[nH]c2nc(-c3ccc(O)cc3)cc(C(=O)N3CC[C@@H](N(C)C)C3)c12` [Example 176, ((R)-3-Dimethylamino-pyrrolidin-1-yl)-[3-ethyl-6-(4-hydroxy-phenyl)-1H-pyrazolo[3,4-b]pyridin-4-yl]-methanone], the inhibition at 1.14 µM was found to be 40%.

As for `CCc1n[nH]c2nc(-c3ccc(O)cc3)cc(C(=O)N3CC[C@H](N(C)C)C3)c12` [Example 177, ((S)-3-Dimethylamino-pyrrolidin-1-yl)-[3-ethyl-6-(4-hydroxy-phenyl)-1H-pyrazolo[3,4-b]pyridin-4-yl]-methanone], the inhibition at 1.14 µM is 50%.

As to `CCc1n[nH]c2nc(-c3ccc(O)cc3)cc(C(=O)N3CCC(NC)C3)c12` (centres unmarked) [Example 178, [3-Ethyl-6-(4-hydroxy-phenyl)-1H-pyrazolo[3,4-b]pyridin-4-yl]-(3-methylamino-pyrrolidin-1-yl)-methanone], the inhibition at 1.14 µM is 71%.

`CCc1n[nH]c2nc(-c3ccc(O)cc3)cc(C(=O)N3C[C@]4(C)CN(C)C[C@](C)(C3)C4O)c12` (stereo partly drawn) [Example 179, [3-Ethyl-6-(4-hydroxy-phenyl)-1H-pyrazolo[3,4-b]pyridin-4-yl]-((1S,5R)-9-hydroxy-1,5,7-trimethyl-3,7-diaza-bicyclo[3.3.1]non-3-yl)-methanone]: the inhibition at 1.14 µM was 55%.

For the molecule `CCc1n[nH]c2nc(-c3ccc(O)cc3)cc(C(=O)NC3CCCN(C)C3)c12` (centres unmarked) [Example 180, 3-Ethyl-6-(4-hydroxy-phenyl)-1H-pyrazolo[3,4-b]pyridine-4-carboxylic acid (1-methyl-piperidin-3-yl)-amide], the inhibition at 1.14 µM came to 53%.

With `CCc1n[nH]c2nc(-c3ccc(O)cc3)cc(C(=O)NC3CC4(CCNCC4)c4ccccc43)c12` (centres unmarked) [Example 181, 3-Ethyl-6-(4-hydroxy-phenyl)-1H-pyrazolo[3,4-b]pyridine-4-carboxylic acid (2,3-dihydrospiro[1H-indene-1,4′-piperidin]-3-yl)-amide], the inhibition at 1.14 µM came out at 77%.

Take `CCc1n[nH]c2nc(-c3ccc(O)cc3)cc(C(=O)NC3CCN(C)CC3)c12` [Example 182, 3-Ethyl-6-(4-hydroxy-phenyl)-1H-pyrazolo[3,4-b]pyridine-4-carboxylic acid (1-methyl-piperidin-4-yl)-amide]: the inhibition at 1.14 µM came out at 44%.

For `CCc1n[nH]c2nc(-c3ccc(O)cc3)cc(C(=O)NC3CNC3)c12` [Example 183, 3-Ethyl-6-(4-hydroxy-phenyl)-1H-pyrazolo[3,4-b]pyridine-4-carboxylic acid azetidin-3-ylamide], the inhibition at 1.14 µM worked out at 67%.

In the case of `CCc1n[nH]c2nc(-c3ccc(O)cc3)cc(C(=O)NC3CC4CCCC(C3)N4C)c12` (centres unmarked) [Example 184, 3-Ethyl-6-(4-hydroxy-phenyl)-1H-pyrazolo[3,4-b]pyridine-4-carboxylic acid (9-methyl-9-aza-bicyclo[3.3.1]non-3-yl)-amide], the inhibition at 1.14 µM worked out at 22%.

`CCc1n[nH]c2nc(-c3ccc(O)cc3)cc(C(=O)N[C@@H]3CCC(=O)NC3)c12` [Example 185, 3-Ethyl-6-(4-hydroxy-phenyl)-1H-pyrazolo[3,4-b]pyridine-4-carboxylic acid ((R)-6-oxo-piperidin-3-yl)-amide]: the inhibition at 1.14 µM was found to be 34%.

Take `CCc1n[nH]c2nc(-c3ccc(O)cc3)cc(C(=O)NCC3CCC(=O)N3)c12` (centres unmarked) [Example 186, 3-Ethyl-6-(4-hydroxy-phenyl)-1H-pyrazolo[3,4-b]pyridine-4-carboxylic acid (5-oxo-pyrrolidin-2-ylmethyl)-amide]: the inhibition at 1.14 µM came to 33%.

Regarding `CCc1n[nH]c2nc(-c3ccc(O)cc3)cc(C(=O)N3CCCN(CC)CC3)c12` [Example 187, (4-Ethyl-[1,4]diazepan-1-yl)-[3-ethyl-6-(4-hydroxy-phenyl)-1H-pyrazolo[3,4-b]pyridin-4-yl]-methanone], the inhibition at 1.14 µM was found to be 58%.

Consider `Cc1n[nH]c2nc(-c3ccc(O)cc3)cc(C(=O)N3CCNC[C@@H]3C)c12` [Example 188, [6-(4-Hydroxy-phenyl)-3-methyl-1H-pyrazolo[3,4-b]pyridin-4-yl]-((S)-2-methyl-piperazin-1-yl)-methanone], for which the inhibition at 1.14 µM was found to be 105%.

Take `Cc1n[nH]c2nc(-c3ccc(O)cc3)cc(C(=O)N3CCN[C@H](C)C3)c12` [Example 189, [6-(4-Hydroxy-phenyl)-3-methyl-1H-pyrazolo[3,4-b]pyridin-4-yl]-((R)-3-methyl-piperazin-1-yl)-methanone]: the inhibition at 1.14 µM was found to be 96%.

Consider `Cc1n[nH]c2nc(-c3ccc(O)cc3)cc(C(=O)N3CCN[C@@H](C)C3)c12` [Example 190, [6-(4-Hydroxy-phenyl)-3-methyl-1H-pyrazolo[3,4-b]pyridin-4-yl]-((S)-3-methyl-piperazin-1-yl)-methanone], for which the inhibition at 1.14 µM was determined as 101%.

For `Cc1n[nH]c2nc(-c3ccc(O)cc3)cc(C(=O)NC3CC4(CC(N)C4)C3)c12` (centres unmarked) [Example 191, 6-(4-Hydroxy-phenyl)-3-methyl-1H-pyrazolo[3,4-b]pyridine-4-carboxylic acid (6-amino-spiro[3.3]hept-2-yl)-amide], the inhibition at 1.14 µM turned out to be 78%.

Turning to `Cc1n[nH]c2nc(-c3ccc(O)cc3)cc(C(=O)N3CC4CNCC4C3)c12` (centres unmarked) [Example 192, (Hexahydro-pyrrolo[3,4-c]pyrrol-2-yl)-[6-(4-hydroxy-phenyl)-3-methyl-1H-pyrazolo[3,4-b]pyridin-4-yl]-methanone], the inhibition at 1.14 µM was 99%.

On to `Cc1n[nH]c2nc(-c3ccc(O)cc3)cc(C(=O)NC3CC4CC3CN4)c12` (centres unmarked) [Example 193, 6-(4-Hydroxy-phenyl)-3-methyl-1H-pyrazolo[3,4-b]pyridine-4-carboxylic acid (2-aza-bicyclo[2.2.1]hept-5-yl)-amide], for which the inhibition at 1.14 µM was found to be 94%.

Turning to `Cc1n[nH]c2nc(-c3ccc(O)cc3)cc(C(=O)N3CCNC(C)C3C)c12` (centres unmarked) [Example 194, (2,3-Dimethyl-piperazin-1-yl)-[6-(4-hydroxy-phenyl)-3-methyl-1H-pyrazolo[3,4-b]pyridin-4-yl]-methanone], the inhibition at 1.14 µM was determined as 99%.

Regarding `CCC[C@@H]1CN(C(=O)c2cc(-c3ccc(O)cc3)nc3[nH]nc(C)c23)CCN1` [Example 195, [6-(4-Hydroxy-phenyl)-3-methyl-1H-pyrazolo[3,4-b]pyridin-4-yl]-((R)-3-propyl-piperazin-1-yl)-methanone], the inhibition at 1.14 µM was found to be 95%.

On to `Cc1n[nH]c2nc(-c3ccc(O)cc3)cc(C(=O)N3CCNC(C(F)(F)F)C3)c12` (centres unmarked) [Example 196, [6-(4-Hydroxy-phenyl)-3-methyl-1H-pyrazolo[3,4-b]pyridin-4-yl]-(3-trifluoromethyl-piperazin-1-yl)-methanone], for which the inhibition at 1.14 µM amounted to 75%.

For the molecule `COC(=O)CC1CNCCN1C(=O)c1cc(-c2ccc(O)cc2)nc2[nH]nc(C)c12` (centres unmarked) [Example 197, {1-[6-(4-Hydroxy-phenyl)-3-methyl-1H-pyrazolo[3,4-b]pyridine-4-carbonyl]-piperazin-2-yl}-acetic acid methyl ester], the inhibition at 1.14 µM is 95%.

`Cc1n[nH]c2nc(-c3ccc(O)cc3)cc(C(=O)N3CCNC(C)(C)C3)c12` [Example 198, (3,3-Dimethyl-piperazin-1-yl)-[6-(4-hydroxy-phenyl)-3-methyl-1H-pyrazolo[3,4-b]pyridin-4-yl]-methanone]: the inhibition at 1.14 µM came out at 99%.

Turning to `Cc1n[nH]c2nc(-c3ccc(O)cc3)cc(C(=O)N3CCNCC3(C)C)c12` [Example 199, (2,2-Dimethyl-piperazin-1-yl)-[6-(4-hydroxy-phenyl)-3-methyl-1H-pyrazolo[3,4-b]pyridin-4-yl]-methanone], the inhibition at 1.14 µM turned out to be 99%.

`Cc1n[nH]c2nc(-c3ccc(O)cc3)cc(C(=O)N[C@@H]3CN4CCC3CC4)c12` [Example 200]: the “% Inhibition” value is recorded as 70%.
